The source made the active and inactive calls.
Key:
Large T antigen = Large T antigen (Simian virus 40, UniProt P03070); type: functional, Betapolyomavirus macacae;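 note: Confirmatory-stage PubChem screen for compounds that inhibit SV40 T antigen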
[1] = biological target: T1, Heat shock factor protein 1 (Mus musculus, UniProt P38532); experiment: enhancement of HSF1-driven luciferase signal – cell-based, NIH3T3, luminescence, dose retest, confirmation (AID 435004); type: functional;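 note: stress induced by proteasome inhibitor MG132 added 30 min after compound; luciferase reporter driven by HSF1 response element in NIH3T3 cells; actives raise luminescence as potentiators of the MG132 stress response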
T1 sequence (P38532 whole entry): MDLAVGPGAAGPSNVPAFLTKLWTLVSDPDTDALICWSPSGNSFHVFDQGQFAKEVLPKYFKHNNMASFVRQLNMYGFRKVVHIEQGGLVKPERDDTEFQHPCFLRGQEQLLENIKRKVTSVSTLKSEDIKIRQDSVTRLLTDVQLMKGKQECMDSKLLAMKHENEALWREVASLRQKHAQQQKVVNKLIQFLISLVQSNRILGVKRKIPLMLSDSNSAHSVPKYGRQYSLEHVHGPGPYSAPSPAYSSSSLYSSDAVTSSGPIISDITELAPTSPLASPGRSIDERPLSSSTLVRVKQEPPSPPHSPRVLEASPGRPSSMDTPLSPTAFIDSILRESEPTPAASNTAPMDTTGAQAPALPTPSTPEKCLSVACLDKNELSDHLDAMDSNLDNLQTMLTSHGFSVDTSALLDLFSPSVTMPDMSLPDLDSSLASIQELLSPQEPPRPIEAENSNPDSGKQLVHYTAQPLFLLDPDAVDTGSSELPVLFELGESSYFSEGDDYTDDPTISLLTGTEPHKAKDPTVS

Leucine aminopeptidase = biological target: T2, Leucine aminopeptidase (Plasmodium falciparum 3D7, UniProt Q8IL11); experiment: P. falciparum M17LAP inhibitors, primary screen, biochemical, fluorogenic H-Leu-NHMec substrate, 1536-well (AID 1619); type: functional
T2 sequence (Q8IL11 whole entry): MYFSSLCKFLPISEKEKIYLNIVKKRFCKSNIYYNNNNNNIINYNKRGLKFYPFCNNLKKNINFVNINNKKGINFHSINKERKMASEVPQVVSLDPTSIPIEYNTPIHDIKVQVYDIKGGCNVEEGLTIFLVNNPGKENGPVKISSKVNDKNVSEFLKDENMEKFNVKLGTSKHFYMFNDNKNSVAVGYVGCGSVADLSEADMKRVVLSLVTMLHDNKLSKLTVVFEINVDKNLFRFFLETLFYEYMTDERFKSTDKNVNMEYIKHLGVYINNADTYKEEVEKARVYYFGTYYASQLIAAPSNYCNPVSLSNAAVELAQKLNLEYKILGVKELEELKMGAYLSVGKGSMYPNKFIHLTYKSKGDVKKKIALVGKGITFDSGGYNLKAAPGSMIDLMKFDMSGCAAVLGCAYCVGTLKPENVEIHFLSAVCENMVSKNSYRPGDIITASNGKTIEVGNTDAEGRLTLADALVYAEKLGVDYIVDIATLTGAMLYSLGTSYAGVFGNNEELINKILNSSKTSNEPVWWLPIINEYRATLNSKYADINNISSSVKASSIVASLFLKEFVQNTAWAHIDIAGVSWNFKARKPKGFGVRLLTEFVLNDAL

[2] = viability of PTEN-deleted HCT116 cells – cell-based, HCT116 PTEN knockout, dose response (AID 1047); type: functional;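 note: HCT116 colon tumor cells with PTEN knocked out; cells exposed to compound for 60 hours before readout; potency for loss of cell viability measured by luminescence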
[3] = viability of HCT116 lacking mutant beta-catenin – cell-based, human colon tumor, dose response (AID 1045); type: functional;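 note: HCT116 colon tumor cells with beta catenin knocked out; cells exposed to compound for 60 hours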
[4] = biological target: T3, Rac GTPase-activating protein 1 (Homo sapiens, UniProt Q9H0H5); experiment: blockers of MgcRacGAP-driven Rac1 GTP hydrolysis – biochemical, ADP Hunter fluorescence, primary and confirmatory, confirmation (AID 624330); type: functional
T3 sequence (Q9H0H5 whole entry): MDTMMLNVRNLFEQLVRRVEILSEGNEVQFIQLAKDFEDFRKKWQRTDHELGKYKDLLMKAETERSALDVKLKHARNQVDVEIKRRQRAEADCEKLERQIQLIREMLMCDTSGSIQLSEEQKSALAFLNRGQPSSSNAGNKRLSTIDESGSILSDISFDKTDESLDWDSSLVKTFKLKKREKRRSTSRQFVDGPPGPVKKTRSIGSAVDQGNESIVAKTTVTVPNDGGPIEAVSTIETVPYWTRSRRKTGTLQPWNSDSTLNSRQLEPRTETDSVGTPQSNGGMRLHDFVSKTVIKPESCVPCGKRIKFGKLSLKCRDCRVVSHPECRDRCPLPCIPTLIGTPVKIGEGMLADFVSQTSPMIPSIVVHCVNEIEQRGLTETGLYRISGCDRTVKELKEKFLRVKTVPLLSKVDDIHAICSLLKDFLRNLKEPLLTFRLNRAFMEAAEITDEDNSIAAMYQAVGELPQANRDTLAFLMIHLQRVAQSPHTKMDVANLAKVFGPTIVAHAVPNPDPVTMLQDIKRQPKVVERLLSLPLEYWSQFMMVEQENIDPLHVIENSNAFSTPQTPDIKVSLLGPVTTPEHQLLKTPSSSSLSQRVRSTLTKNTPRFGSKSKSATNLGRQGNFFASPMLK

[5] = microbe, parasite or virus in culture; type: functional; conditions: Mycobacterium tuberculosis
Streptokinase A = biological target: T4, Streptokinase A (Streptococcus pyogenes serotype M1, UniProt P10520); experiment: viability-normalized secreted streptokinase activity reduction – plasminogen activation absorbance, OD405, dose response (AID 1914); type: functional, Streptococcus pyogenes M1 GAS;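 note: secreted streptokinase activity via plasminogen activation per viability signal from cell pellet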
T4 sequence (P10520 whole entry): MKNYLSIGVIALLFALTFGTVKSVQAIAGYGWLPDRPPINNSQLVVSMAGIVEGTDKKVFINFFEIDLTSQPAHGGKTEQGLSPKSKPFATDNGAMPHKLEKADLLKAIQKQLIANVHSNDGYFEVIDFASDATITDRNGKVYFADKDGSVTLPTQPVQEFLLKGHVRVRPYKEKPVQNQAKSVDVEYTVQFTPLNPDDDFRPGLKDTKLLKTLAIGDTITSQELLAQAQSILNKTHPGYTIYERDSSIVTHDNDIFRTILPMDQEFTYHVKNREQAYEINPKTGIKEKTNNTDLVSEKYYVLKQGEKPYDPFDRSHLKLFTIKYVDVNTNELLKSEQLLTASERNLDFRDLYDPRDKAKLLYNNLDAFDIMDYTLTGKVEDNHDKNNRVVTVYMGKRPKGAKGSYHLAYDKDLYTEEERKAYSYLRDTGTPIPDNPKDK

[6] = tested on: Streptococcus sp. 'group A'; experiment: Streptococcus pyogenes SK(-)GAS viability under kanamycin – luminescence, BacTiterGlo, confirmation, counter-screen for streptokinase expression inhibitor project, dose response (AID 1900); type: functional, organism-based
Streptococcus = experiment: GAS UMAA2166 growth inhibition – luminescence, BacTiterGlo, counter-screen for streptokinase expression inhibitor project, dose response (AID 1915); type: functional, organism-based;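 note: potency for reduction of bacterial viability or growth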
cells = type: functional
Cytochrome P450 2D6 = Cytochrome P450 2D6 (Homo sapiens, UniProt P10635);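 note: CYP2D6 member of a cytochrome P450 panel assay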
Sequence of Cytochrome P450 2D6 (P10635 whole entry): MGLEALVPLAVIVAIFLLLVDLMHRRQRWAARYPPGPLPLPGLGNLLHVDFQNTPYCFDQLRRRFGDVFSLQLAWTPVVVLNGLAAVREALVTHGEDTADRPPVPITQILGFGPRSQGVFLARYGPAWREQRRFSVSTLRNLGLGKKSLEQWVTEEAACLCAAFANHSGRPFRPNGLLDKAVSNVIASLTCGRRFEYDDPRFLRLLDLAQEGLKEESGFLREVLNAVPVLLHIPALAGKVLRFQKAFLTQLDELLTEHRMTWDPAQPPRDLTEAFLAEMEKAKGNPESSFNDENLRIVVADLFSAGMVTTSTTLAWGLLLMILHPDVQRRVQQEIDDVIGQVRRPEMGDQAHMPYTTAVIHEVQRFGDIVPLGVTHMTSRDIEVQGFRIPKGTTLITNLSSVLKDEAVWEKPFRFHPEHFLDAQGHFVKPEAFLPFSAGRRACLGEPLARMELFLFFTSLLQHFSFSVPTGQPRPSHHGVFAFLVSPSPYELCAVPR

[7] = Trypanosoma cruzi growth suppression in host cells – NIH3T3 host cells, beta-gal luminescence, confirmation (AID 2044); type: functional, cell-based;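 note: intracellular parasites grown in NIH/3T3 mouse fibroblasts as host cells; luminescent beta-galactosidase reporter signal from transgenic T. cruzi replicating inside host cells; inhibitors lower the luminescence signal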
[8] = NIH3T3 cell viability loss – ATP luminescence, mouse fibroblasts, counter-screen, dose response (AID 2010); type: functional, cell-based;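 note: cells exposed to compound for about 90 hours before reading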

Sequence of Large T antigen (P03070 whole entry): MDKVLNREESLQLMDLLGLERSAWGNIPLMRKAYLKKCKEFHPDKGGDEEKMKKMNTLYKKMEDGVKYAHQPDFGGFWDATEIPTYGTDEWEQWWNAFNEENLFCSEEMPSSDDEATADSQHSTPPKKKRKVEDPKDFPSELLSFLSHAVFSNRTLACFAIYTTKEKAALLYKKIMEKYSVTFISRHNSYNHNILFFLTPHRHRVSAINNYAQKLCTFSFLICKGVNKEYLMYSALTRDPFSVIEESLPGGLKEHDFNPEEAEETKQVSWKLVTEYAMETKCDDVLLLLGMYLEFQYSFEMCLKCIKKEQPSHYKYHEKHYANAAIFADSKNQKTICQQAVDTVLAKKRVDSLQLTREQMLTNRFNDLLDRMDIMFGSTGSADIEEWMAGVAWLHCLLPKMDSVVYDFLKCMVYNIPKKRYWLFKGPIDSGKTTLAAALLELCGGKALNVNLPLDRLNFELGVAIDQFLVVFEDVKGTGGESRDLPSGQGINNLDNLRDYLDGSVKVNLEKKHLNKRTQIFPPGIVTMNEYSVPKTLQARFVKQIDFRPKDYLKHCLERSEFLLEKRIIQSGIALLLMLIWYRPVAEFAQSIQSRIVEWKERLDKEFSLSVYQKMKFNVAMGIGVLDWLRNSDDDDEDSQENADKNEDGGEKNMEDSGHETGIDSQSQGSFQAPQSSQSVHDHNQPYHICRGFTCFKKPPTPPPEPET

## Cc1ccc(S(=O)(=O)N2CCOCC2)cc1NC(=O)CN1CCN(c2ccc(O)cc2)CC1
Large T antigen
  IC50: 5.03 µM (active)

## COc1cccc(/C=N/NC(=S)NC2CC3CC2C2C=CCC32)c1O (configuration not stated)
[1]
  EC50: > 260 µM (inactive)

## CCOC(=O)CN1C=C(c2ccc3ccccc3n2)C(C[N+](=O)[O-])c2ccccc21 (configuration not stated)
[1]
  EC50: 70.3 µM (active)

## COc1cccc(/C=N/NC(=O)CC2C(=O)NN=C2C)c1OC (configuration not stated)
Leucine aminopeptidase
  IC50: 23.5 µM (active)

## O=C(N/N=C/c1ccc(F)c(F)c1)c1cc2c(s1)-c1ccccc1CC2
[2]
  EC50: 22.4 µM (active)
[3]
  EC50: 21.2 µM (active)

## CN(C)c1ccc(NC(=O)CN2CCC(C(=O)c3ccc(F)cc3)CC2)cc1
Large T antigen
  IC50: 10.4 µM (active)

## COc1ccc(NC2CCCN(C(=O)c3ccc(OC)o3)C2)cc1 (configuration not stated)
Large T antigen
  IC50: 16.7 µM (active)

## Cc1nc(CN2CCN(Cc3nc(C(c4ccccc4)c4ccccc4)no3)CC2)cs1
[1]
  EC50: > 260 µM (inactive)

## CN(C(=O)c1ccccc1C(=O)OCC(=O)NCc1cccs1)C1CCCCC1
Large T antigen
  IC50: > 100 µM (active)

## CCOC(=O)c1cnn2cc(-c3[nH]ncc3[N+](=O)[O-])cnc12
Leucine aminopeptidase
  IC50: 5.26 µM (active)

## CCCCn1nnnc1SCC(=O)Nc1ccc(N(C)C)cc1
Large T antigen
  IC50: 11.2 µM (active)

## S=C1NC(c2ccccc2)N2C(=S)NC(c3ccccc3)N12 (configuration not stated)
Leucine aminopeptidase
  IC50: 20.9 µM (active)

## COc1cc2c3c(c1OC)C1(C=CC(=O)C=C1)CC3N(C(=O)c1ccccc1)CC2 (configuration not stated)
[1]
  EC50: > 260 µM (inactive)

## CCOC(=O)N1CCC(NC(=O)c2cccs2)CC1
[1]
  EC50: > 260 µM (inactive)

## CCCCn1c(=N)n(CC(O)COc2ccc(C)cc2)c2ccccc21 (configuration not stated)
[2]
  EC50: 6.43 µM (active)
[3]
  EC50: 6.36 µM (active)

## CCOc1cc(/C=N/n2cnnc2)ccc1O
Large T antigen
  IC50: 13.6 µM (active)
[4]
  IC50: 34.3 µM (active)

## Cc1ccc(P(=O)(CSC(=N)N)c2ccc(C)cc2)cc1
[2]
  EC50: 30.7 µM (active)
[3]
  EC50: 25.4 µM (active)

## O=C(N/N=C/c1ccc(Br)s1)c1cccs1
[5]
  CC50: 33.3 µM (active)

## COc1ccccc1C(=O)NNC(=O)C(=O)NCc1ccccc1
[5]
  CC50: > 40 µM (active)

## CCOc1ccc(C(=O)N2CCN(S(=O)(=O)c3cccs3)CC2)c(OCC)c1
[1]
  EC50: > 260 µM (inactive)

## Cc1cccc(N(CC(=O)Nc2ccccc2-c2ccccc2)S(=O)(=O)c2ccccc2)c1C
[1]
  EC50: > 260 µM (inactive)

## Cc1nn(-c2ccccc2)c(C)c1/C=N/NC(=O)c1cc(-c2cccc3ccccc23)[nH]n1
Streptokinase A
  EC50: > 150 µM (not active)
[6]
  EC50: 18.6 µM (active)
[5]
  CC50: 30.5 µM (active)
Streptococcus
  EC50: 89.4 µM (active)

## Fc1ccc(CN2CCN(c3ncnc4scc(-c5ccccc5)c34)CC2)cc1
[1]
  EC50: > 260 µM (inactive)

## CS(=O)(=O)Cc1nc2ccccc2oc1=O
cells
  IC50: 2.93 µM (active)
[4]
  IC50: 73.6 µM (active)

## COc1ccc(NC(=O)Nc2ccc3oc(C)nc3c2)cc1
Leucine aminopeptidase
  IC50: 14.8 µM (active)

## Cc1cc(N/N=C2/CCCc3ccccc32)nc2ccccc12
[5]
  CC50: > 40 µM (active)

## O=C1CC(SC(=Nc2ccccc2)Nc2ccccc2)C(=O)N1c1cccc(Cl)c1 (configuration not stated)
Cytochrome P450 2D6
  AC50: 10 µM (inconclusive)
[2]
  EC50: 24.5 µM (active)
[3]
  EC50: 33.2 µM (active)

## O=C(OCc1cccc(F)c1)c1ccc2c(=O)n3c(nc2c1)CCC3
cells
  IC50: 12.1 µM (active)

## O=C(CNC(=O)c1ccco1)OCc1ccc(C(=O)Oc2ccccc2)cc1
cells
  IC50: 11.7 µM (active)
[5]
  CC50: > 40 µM (active)

## N/C(S)=N/c1c(Cl)cccc1Cl
Large T antigen
  IC50: 77.4 µM (active)

## Cc1ccc2c[nH]nc2c1N
Large T antigen
  IC50: 15.4 µM (active)

## O=C(N/N=C/c1ccc([N+](=O)[O-])o1)c1cc(-c2cccc(Br)c2)nc2ccccc12
[7]
  EC50: 0.128 µM (active)
[6]
  EC50: 0.398 µM (active)
[2]
  EC50: 7.92 µM (active)
[8]
  EC50: > 60 µM (not active)
[3]
  EC50: 7.86 µM (active)
Streptococcus
  EC50: 0.796 µM (active)

## COc1ccc(NC(=O)CSc2nnc(NC(=O)c3ccccc3C(=O)O)s2)cc1
Leucine aminopeptidase
  IC50: 6.27 µM (active)

## Cc1cc(C)cc(OCC(O)CN2C(=O)NC(C)(C)C2=O)c1 (configuration not stated)
[1]
  EC50: > 260 µM (inactive)

## CN1C(=O)C(O)(CC(=O)c2ccc(F)cc2)c2cc(Br)ccc21 (configuration not stated)
[2]
  EC50: 19.1 µM (active)
[3]
  EC50: 15.7 µM (active)
